Test results reported in patent US11795223B2, “Combination therapies for treating myelodysplastic syndromes and acute myeloid leukemia” (Forty Seven, Inc., priority 2019, dated 2023).

Tests used:
[1] = test system: MDS; conditions: cited from earlier work
[2] = test system: human AML; test: nonclinical xenograft models of human AML; format: in vivo; conditions: mice
[3] = Phase 1 trials of Hu5F9-G4 monotherapy; format: in vivo; conditions: Phase 1 trial
[4] = pivotal randomized trial leading to azacitidine approval in MDS

Nc1ncn([C@@H]2O[C@H](CO)[C@@H](O)[C@H]2O)c(=O)n1 [azacitidine]
known CR rate ([1]; azacitidine alone): 17.85% | CR+PR rate, point estimate [1, 4]: 15.7% | CR+PR rate, upper bound of the 1-sided 95% confidence interval [1, 4]: 23.5%

Hu5F9-G4: humanized IgG4 kappa monoclonal antibody targeting human CD47; heavy chain SEQ ID NO: 50, light chain SEQ ID NO: 51
leukemic disease in the peripheral blood and bone marrow [2]: robust elimination of leukemic disease in the peripheral blood and bone marrow which results in long term remissions in a high percentage of mice treated | maximum tolerated dose (MTD) [3]: has not been reached | tolerability [3]: well tolerated
